Measurements published in ChEMBL document CHEMBL4311997, “Discovery of a potent histone deacetylase (HDAC) 3/6 selective dual inhibitor” (Eur J Med Chem, 2019).
Active and inactive are the calls of the source. The calls are words filed in the database; no cut-off is given here.

Columns and labels:
[1] = tested on: OPM-2; test: Antiproliferative activity against human OPM2 cells incubated for 48 hrs by CellTiter-Glo luminescent cell viability assay; format: functional, cell-based; details: OPM-2, 48 h
[2] = tested on: MDA-MB-231; test: Antiproliferative activity against human MDA-MB-231 cells incubated for 72 hrs by MTT assay; format: functional, cell-based; details: MDA-MB-231, 72 h
[3] = Selectivity index, ratio of EC50 for human MDA-MB-231 cells to IC50 for ring stage Plasmodium falciparum 3D7; format: functional; design: reference not given here
[4] = target: T1, Protein deacetylase HDAC6 (Homo sapiens, UniProt Q9UBN7); test: Inhibition of human HDAC6 using Arg-His-Lys-Lys (Ac) as substrate incubated for 2 hrs by fluorescence assay
T1 sequence (Q9UBN7 whole entry): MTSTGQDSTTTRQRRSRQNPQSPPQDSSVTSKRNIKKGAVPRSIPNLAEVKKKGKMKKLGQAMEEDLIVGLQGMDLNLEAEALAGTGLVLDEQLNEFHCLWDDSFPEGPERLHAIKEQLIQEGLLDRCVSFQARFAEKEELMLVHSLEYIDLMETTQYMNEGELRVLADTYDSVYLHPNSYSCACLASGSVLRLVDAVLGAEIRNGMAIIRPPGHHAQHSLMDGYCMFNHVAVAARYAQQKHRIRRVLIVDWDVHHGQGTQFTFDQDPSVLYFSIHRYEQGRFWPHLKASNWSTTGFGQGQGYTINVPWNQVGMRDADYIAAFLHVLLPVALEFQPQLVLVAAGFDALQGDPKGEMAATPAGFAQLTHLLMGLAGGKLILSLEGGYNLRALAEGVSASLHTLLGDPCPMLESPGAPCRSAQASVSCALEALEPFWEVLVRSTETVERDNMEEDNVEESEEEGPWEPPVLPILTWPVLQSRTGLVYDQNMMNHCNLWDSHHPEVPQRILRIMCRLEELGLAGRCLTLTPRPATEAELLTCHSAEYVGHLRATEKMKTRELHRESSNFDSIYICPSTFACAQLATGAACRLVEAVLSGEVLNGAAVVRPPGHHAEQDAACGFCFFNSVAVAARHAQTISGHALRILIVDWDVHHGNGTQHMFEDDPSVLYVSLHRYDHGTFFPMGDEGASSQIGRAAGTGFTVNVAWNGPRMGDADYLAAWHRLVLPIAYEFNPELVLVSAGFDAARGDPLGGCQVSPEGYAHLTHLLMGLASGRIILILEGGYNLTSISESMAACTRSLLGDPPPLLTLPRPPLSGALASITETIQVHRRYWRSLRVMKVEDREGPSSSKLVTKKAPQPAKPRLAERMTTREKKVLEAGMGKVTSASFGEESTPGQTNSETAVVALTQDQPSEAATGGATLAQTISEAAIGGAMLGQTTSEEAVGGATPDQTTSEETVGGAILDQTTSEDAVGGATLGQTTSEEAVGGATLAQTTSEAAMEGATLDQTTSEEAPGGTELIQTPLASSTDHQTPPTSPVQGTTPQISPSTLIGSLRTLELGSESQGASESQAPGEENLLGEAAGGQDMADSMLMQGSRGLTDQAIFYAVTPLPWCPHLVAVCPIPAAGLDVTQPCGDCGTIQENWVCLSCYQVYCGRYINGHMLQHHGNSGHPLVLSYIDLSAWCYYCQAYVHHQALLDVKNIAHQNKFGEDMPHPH

[5] = target: Histone deacetylase 1 (Homo sapiens, UniProt Q13547)
Histone deacetylase 1, sequence (Q13547 whole entry): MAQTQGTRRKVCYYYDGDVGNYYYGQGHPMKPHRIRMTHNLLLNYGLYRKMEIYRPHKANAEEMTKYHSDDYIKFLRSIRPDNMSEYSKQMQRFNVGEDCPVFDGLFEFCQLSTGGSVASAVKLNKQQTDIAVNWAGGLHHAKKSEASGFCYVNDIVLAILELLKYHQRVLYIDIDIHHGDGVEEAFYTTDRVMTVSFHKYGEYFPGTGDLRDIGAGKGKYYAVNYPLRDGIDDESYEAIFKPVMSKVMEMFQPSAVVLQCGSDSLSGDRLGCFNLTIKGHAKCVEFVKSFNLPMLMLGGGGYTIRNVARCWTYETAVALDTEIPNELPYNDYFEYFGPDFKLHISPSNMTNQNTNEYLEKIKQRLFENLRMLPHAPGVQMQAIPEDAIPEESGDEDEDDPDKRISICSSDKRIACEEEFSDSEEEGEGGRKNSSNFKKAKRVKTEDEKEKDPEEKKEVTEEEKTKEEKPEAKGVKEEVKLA
Description: Inhibition of human HDAC1 using Arg-His-Lys-Lys (Ac) as substrate incubated for 2 hrs by fluorescence assay

[6] = tested on: MCF7; test: Antiproliferative activity against human MCF7 cells incubated for 72 hrs by MTT assay; format: functional, cell-based; details: MCF7, 72 h
[7] = Selectivity index, ratio of EC50 for human MDA-MB-231 cells to IC50 for ring stage Plasmodium falciparum K1; format: functional; design: reference not given here
[8] = tested on: Plasmodium falciparum; test: microbe, parasite or virus in culture; format: functional, organism-based; details: 3D7, 48 h
Description: Antimalarial activity against ring stage Plasmodium falciparum 3D7 incubated for 48 hrs by Hoechst 33342 staining based fluorescence based assay

[9] = tested on: Plasmodium falciparum; test: microbe, parasite or virus in culture; format: functional, organism-based; details: K1, 48 h
Description: Antimalarial activity against ring stage Plasmodium falciparum K1 incubated for 48 hrs by Hoechst 33342 staining based fluorescence based assay

[10] = tested on: KMS-12-BM; test: Effect on human KMS-12-BM cells assessed as inhibition in H3K9Me2 level at 2 to 10 uM incubated for 24 hrs by Western blot analysis; format: functional, cell-based
[11] = target: Histone deacetylase 1/2/3 (Homo sapiens, UniProt Q13547+O15379+Q92769); test: Inhibition of HDAC1/2/3 in human KMS-12-BM cells assessed as increase in Ac-H3 level at 2 to 10 uM incubated for 24 hrs by Western blot analysis; format: cell-based
[12] = tested on: MDA-MB-231; test: Induction of apoptosis in human MDA-MB-231 cells assessed as viable cells at 1 uM incubated for 48 hrs by Annexin V-FITC/PI staining by flow cytometric analysis (reference value: 77%); format: functional; details: MDA-MB-231, 48 h, read-out: Activity
[13] = tested on: MDA-MB-231; test: Induction of apoptosis in human MDA-MB-231 cells assessed as early apoptotic cells at 1 uM incubated for 48 hrs by Annexin V-FITC/PI staining by flow cytometric analysis (reference value: 5%); format: functional
[14] = tested on: MDA-MB-231; test: Induction of apoptosis in human MDA-MB-231 cells assessed as necrotic cells at 1 uM incubated for 48 hrs by Annexin V-FITC/PI staining by flow cytometric analysis (reference value: 15%); format: functional
[15] = tested on: MDA-MB-231; test: Induction of apoptosis in human MDA-MB-231 cells assessed as late apoptotic cells at 1 uM incubated for 48 hrs by Annexin V-FITC/PI staining by flow cytometric analysis (reference value: 3%); format: functional
[16] = target: Protein deacetylase HDAC6 (Homo sapiens) (UniProt Q9UBN7); test: Potency index, ratio of IC50 for vorinostat to IC50 for test compound for human HDAC6

| Compound | EC50 [2] [µM] | Selectivity Index [3] | IC50 [4] [µM] | IC50 [5] [µM] | EC50 [6] [µM] | Selectivity Index [7] | IC50 [8] [µM] | IC50 [9] [µM] | further results |
| --- | --- | --- | --- | --- | --- | --- | --- | --- | --- |
| O=C(CCCCCCC(=O)Nc1ccccc1)NO [VORINOSTAT] |  |  |  |  |  |  |  |  | EC50 [1]: 2.9 µM |
| COc1cc2nc(Nc3ccc(NC(=O)CCCCCCC(=O)NO)cc3)nc(NC3CCN(Cc4ccc(F)cc4)CC3)c2cc1OC | 4.9 | 44 | 0.00798 | 2.15 | 4.9 | 17 | 0.111 | 0.296 |  |
| O=C(CCCCCCC(=O)Nc1ccc(Nc2nc(NC3CCN(Cc4ccccc4)CC3)c3sccc3n2)cc1)NO | 2.9 |  | 0.0059 | 0.233 | 2.9 |  |  |  |  |
| COc1cc2nc(N3CCN(C(=O)CCCCCCC(=O)NO)CC3)nc(NC3CCN(Cc4ccccc4)CC3)c2cc1OC | 7 |  | 0.0355 | 3.08 | 7.7 |  |  |  |  |
| COc1cc2nc(Nc3ccc(NC(=O)CCCCCCC(=O)NO)cc3)nc(NC3CCN(Cc4ccccc4Cl)CC3)c2cc1OC | 4.1 | 43 | 0.00909 | 3.37 | 4.9 | 8 | 0.096 | 0.489 |  |
| COc1cc2nc(N3CCCN(C)CC3)nc(NC3CCN(Cc4ccccc4)CC3)c2cc1OC | 2.9 |  |  |  | 3.3 |  | 0.152 |  | Activity [10]: Active; inhibition [11]: inactive |
| COc1cccc2c1C(=O)c1c(O)c3c(c(O)c1C2=O)C[C@@](O)(C(=O)CO)C[C@@H]3O[C@H]1C[C@H](N)[C@H](O)[C@H](C)O1 [DOXORUBICIN] |  |  |  |  |  |  |  |  | viability at 1 µM [12]: 1%; Activity [13]: 1%; Activity [14]: 6%; Activity [15]: 92% |
| COc1cc2nc(Nc3ccc(NC(=O)CCCCCCC(=O)NO)cc3)nc(NC3CCN(Cc4ccccc4)CC3)c2cc1OC | 5.1 | 26 | < 0.0005 | 1.03 | 12 | 6 | 0.2 | 0.878 | Ratio IC50 [16]: 40 |
